Earlier results in patent publication US10650914B2, “Fresh water acute criteria prediction method based on quantitative structure-activity relationship for metals” (Chinese Research Academy of Environmental Sciences, priority 2015, dated 2020).

Experiments:
Carp = settings: training set
Daphnia magna = settings: for Endpoint Index: fatality rate, 48 hours, 13° C., pH 7.6, total hardness 240 mg/L; for Observed value (log-EC50): training set of leave-one-out internal validation

SMILES	Observed value (log-LC50) (Carp)	Endpoint Index (Daphnia magna)	Observed value (log-EC50) (Daphnia magna)
[Cd] [Cadmium]	0.331		
[Cr] [Chromium]	2.439		
[Cu] [Copper]	1.097	0.014	−0.6601
[Fe] [Iron]		2.92	1.7172
[Pb] [Lead]		8.69	1.6231
[Ni] [Nickel]	2.246	5.7	1.9850
[Ag] [Silver]		0.014	−0.8873
[Zn] [Zinc]	2.079	0.13	0.3010
